Like-named read-outs stand apart in the source and are kept apart here.
Molecular target: Human FXR (NR1H4) (Homo sapiens (Human), UniProt Q96RI1)
Assay: Human FXR (NR1H4) Assay (Gal4 promoter driven luciferase reporter transactivation in CHO cells)
Type: cell-based
Source text: Assays Human FXR (NR1H4) Assay
Determination of a ligand mediated Gal4 promoter driven transactivation to quantify ligand binding mediated activation of FXR. FXR Reporter Assay kit purchased from Indigo Bioscience (Catalogue number: IB00601) to determine the potency and efficacy of compound developed by Enanta that can induce FXR activation. The principle application of this reporter assay system is to quantify functional activity of human FXR. The assay utilizes non-human mammalian cells, CHO (Chinese hamster ovary) cells engineered to express human NR1H4 protein (referred to as FXR). Reporter cells also incorporate the cDNA encoding beetle luciferase which catalyzes the substrates and yields photon emission. Luminescence intensity of the reaction is quantified using a plate-reading luminometer, Envision. Reporter Cells include the luciferase reporter gene functionally linked to an FXR responsive promoter. Thus, quantifying changes in luciferase expression in the treated reporter cells provides a sensitive surrogate measure of the changes in FXR activity. […] The assay is according to the manufacturer's instructions. In brief, the assay was performed in white, 96 well plates using final volume of 200 ul containing cells with different doses of compounds. Retrieve Reporter Cells from −80° C. storage. Perform a rapid thaw of the frozen cells by transferring a 10 ml volume of 37° C. cell recovery medium into the tube of frozen cells. Recap the tube of Reporter Cells and immediately place it in a 37° C. water bath for 5-10 minutes. Retrieve the tube of Reporter Cell Suspension from the water bath. Sanitize the outside surface of the tube with a 70% alcohol swab, and then transfer it into the cell culture hood. Dispense 100 μl of cell suspension into each well of the 96-well Assay Plate. Transfer the plate into 37° C. incubator, allowing the cells adherent to the bottom of the well. Dilute compounds in Dilution Plate (DP), and administrate to cells at Assay Plate (AP). DMSO content of the samples was kept at 0.2%. Cells were incubated for additional 22 hours before luciferase activities were measured. Thirty minutes before intending to quantify FXR activity, remove Detection Substrate and Detection Buffer from the refrigerator and place them in a low-light area so that they may equilibrate to room temperature. Remove the plate's lid and discard all media contents by ejecting it into an appropriate waste container. Gently tap the inverted plate onto a clean absorbent paper towel to remove residual droplets. Cells will remain tightly adhered to well bottoms. Add 100 μl of luciferase detection reagent to each well of the assay plate. Allow the assay plate to rest at room temperature for at least 5 minutes following the addition of LDR. Set the instrument (Envision) to perform a single 5 second “plate shake” prior to reading the first assay well. Read time may be 0.5 second (500 mSec) per well.

[1] = FXR agonistic potency range; CHO reporter cells expressing human NR1H4, 22 hours incubation; read-out: EC50
[2] = efficacy normalized to chenodeoxycholic acid (CDCA) set as 100%

Chain of Human FXR (NR1H4) (Q96RI1 whole entry, the tested form may be a part): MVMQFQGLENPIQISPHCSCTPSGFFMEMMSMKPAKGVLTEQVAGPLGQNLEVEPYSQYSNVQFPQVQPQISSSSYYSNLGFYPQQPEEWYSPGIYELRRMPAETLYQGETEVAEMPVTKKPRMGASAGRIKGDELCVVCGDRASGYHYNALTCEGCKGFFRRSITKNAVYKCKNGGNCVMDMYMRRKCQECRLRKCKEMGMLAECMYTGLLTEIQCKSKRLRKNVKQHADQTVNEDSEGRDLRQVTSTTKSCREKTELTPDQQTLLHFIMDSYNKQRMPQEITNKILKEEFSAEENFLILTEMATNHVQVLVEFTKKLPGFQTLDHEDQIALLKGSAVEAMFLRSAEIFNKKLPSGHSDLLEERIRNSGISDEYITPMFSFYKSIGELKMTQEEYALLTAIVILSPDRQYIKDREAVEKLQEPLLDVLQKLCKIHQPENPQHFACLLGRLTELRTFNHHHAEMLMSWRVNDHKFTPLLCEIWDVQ

Row | Structure (SMILES) | EC50 [1] | Efficacy (%) [2] | Emax (CHO, read-out: Efficacy (%)) | also measured
1 | CC[C@@H]1C2C[C@H](O)CCC2(C)[C@H]2CCC3(C)C([C@H](C)CCC(=O)NS(=O)(=O)c4cccnc4)CC[C@H]3[C@@H]2[C@@H]1O (some centres unmarked) [Example 466] |  |  |  | Emax (CHO; read-out: Efficacy (%)): 258%; EC50 (read-out: EC50): 1000 to 10000 nM
2 | CCC1C(O)C2C3CCC(C(C)CCC(=O)NS(=O)(=O)C4(C)CC4)C3(C)CCC2C2(C)CCC(O)CC12 (centres unmarked) [Example 12] | 100 to 1000 nM | 331% |  | 
3 | CCC1C(O)C2C3CCC(C(C)CCC(=O)NS(=O)(=O)F)C3(C)CCC2C2(C)CCC(O)CC12 (centres unmarked) [Example 25] | 1000 to 10000 nM | 347% |  | 
4 | CCC1C(O)C2C3CCC(C(C)CCC(=O)NS(=O)(=O)c4ccc(C)cc4)C3(C)CCC2C2(C)CCC(O)CC12 (centres unmarked) [Example 24] | < 100 nM | 271% |  | 
5 | CC[C@@H]1C2C[C@H](O)CCC2(C)[C@H]2CCC3(C)C([C@H](C)CCC(=O)NS(=O)(=O)C4CCCC4)CC[C@H]3[C@@H]2[C@@H]1O (some centres unmarked) [Example 482] | < 100 nM |  | 342% | 
6 | CC[C@@H]1C2C[C@H](O)CCC2(C)[C@H]2CCC3(C)C([C@H](C)CCC(=O)NS(=O)(=O)c4ccc(OC)c(F)c4)CC[C@H]3[C@@H]2[C@@H]1O (some centres unmarked) [Example 476] | < 100 nM |  | 593% | 
7 | CC[C@H]1[C@@H](O)[C@@H]2[C@H](CC[C@]3(C)[C@@H]([C@H](C)C[C@@H](C)C(=O)NS(=O)(=O)c4ccc(OC(F)(F)F)cc4)CC[C@@H]23)[C@@]2(C)CC[C@@H](O)C[C@@H]12 [Example 487] | < 100 nM |  | 287% | 
8 | CC[C@@H]1C2C[C@H](O)CCC2(C)[C@H]2CCC3(C)C([C@H](C)CCC(=O)NS(=O)(=O)c4ccc([N+](=O)[O-])cc4)CC[C@H]3[C@@H]2[C@@H]1O (some centres unmarked) [Example 454] |  |  |  | Emax (CHO; read-out: Efficacy (%)): 353%; EC50 (read-out: EC50): 100 to 1000 nM
9 | CC[C@@H]1C2C[C@H](O)CCC2(C)[C@H]2CCC3(C)C([C@H](C)CCC(=O)NS(=O)(=O)c4nccs4)CC[C@H]3[C@@H]2[C@@H]1O (some centres unmarked) [Example 474] |  |  |  | Emax (CHO; read-out: Efficacy (%)): 463%; EC50 (read-out: EC50): 1000 to 10000 nM
10 | CC[C@@H]1C2C[C@H](O)CCC2(C)[C@H]2CCC3(C)C([C@H](C)CCC(=O)NS(=O)(=O)c4ccc(OC)cc4)CC[C@H]3[C@@H]2[C@@H]1O (some centres unmarked) [Example 455] | < 100 nM |  | 417% | 
11 | CC[C@@H]1C2C[C@H](O)CCC2(C)[C@H]2CCC3(C)C([C@H](C)CCC(=O)NS(=O)(=O)c4cccc([N+](=O)[O-])c4)CC[C@H]3[C@@H]2[C@@H]1O (some centres unmarked) [Example 452] |  |  | 292% | EC50: 1000 to 10000 nM
12 | CCC1C(O)C2C3CCC(C(C)CCC(=O)NS(N)(=O)=O)C3(C)CCC2C2(C)CCC(O)CC12 (centres unmarked) [Example 17] | 1000 to 10000 nM | 349% |  | 
13 | CC[C@@H]1C2C[C@H](O)CCC2(C)[C@H]2CCC3(C)C([C@H](C)CCC(=O)NS(=O)(=O)c4cccc5ccccc45)CC[C@H]3[C@@H]2[C@@H]1O (some centres unmarked) [Example 483] | < 100 nM |  | 308% | 
14 | CC[C@@H]1C2C[C@H](O)CCC2(C)[C@H]2CCC3(C)C([C@H](C)CCC(=O)NS(=O)(=O)c4ccc(C(F)(F)F)cc4)CC[C@H]3[C@@H]2[C@@H]1O (some centres unmarked) [Example 475] | < 100 nM |  | 590% | 
15 | CC[C@@H]1C2C[C@H](O)CCC2(C)[C@H]2CCC3(C)C([C@H](C)CCC(=O)NS(=O)(=O)c4ccc5ccccc5c4)CC[C@H]3[C@@H]2[C@@H]1O (some centres unmarked) [Example 472] | < 100 nM |  | 580% | 
16 | CCC1C(O)C2C3CCC(C(C)CCC(=O)NS(=O)(=O)C(C)C)C3(C)CCC2C2(C)CCC(O)CC12 (centres unmarked) [Example 3] | 100 to 1000 nM | 289% |  | 
17 | CCC1C(O)C2C3CCC(C(C)CCC(=O)NS(=O)(=O)CC)C3(C)CCC2C2(C)CCC(O)CC12 (centres unmarked) [Example 2] | 100 to 1000 nM | 258% |  | 
18 | CC[C@@H]1C2C[C@H](O)CCC2(C)[C@H]2CCC3(C)C([C@H](C)CCC(=O)NS(=O)(=O)c4ccncc4)CC[C@H]3[C@@H]2[C@@H]1O (some centres unmarked) [Example 463] |  |  |  | Emax (CHO; read-out: Efficacy (%)): 251%; EC50 (read-out: EC50): 1000 to 10000 nM
19 | CC[C@@H]1C2C[C@H](O)CCC2(C)[C@H]2CCC3(C)C([C@H](C)CCC(=O)NS(=O)(=O)c4ccc(F)cc4)CC[C@H]3[C@@H]2[C@@H]1O (some centres unmarked) [Example 453] |  |  |  | Emax (CHO; read-out: Efficacy (%)): 240%; EC50 (read-out: EC50): 100 to 1000 nM
